Reference: patent US7323485B2, “4-(substituted cycloalkylmethyl) imidazole-2-thiones, 4-(substituted cycloalkenylmethyl) imidazole-2-thiones, 4-(substituted cycloalkylmethyl) imidazol-2-ones and 4-(substituted cycloalkenylmethyl) imidazol-2-ones and related compounds” (Allergan, Inc., priority 2002, dated 2008)

How the values were obtained:
[1] = molecular target: T1, alpha2B adrenergic receptors (Homo sapiens, UniProt P18089); test: Receptor Selection and Amplification Technology (RSAT) assay, alpha2B; format: cell-based; conditions: for EC50: NA = not active at concentrations less than 10 micromolar, read-out: Alpha 2B EC50; for Alpha 2B intrinsic activity: fraction of maximal effect of standard full agonist brimonidine (UK14304)
T1 construct: expressed in transfected cells; host or cells: NIH-3T3
T1 sequence (P18089 1-450): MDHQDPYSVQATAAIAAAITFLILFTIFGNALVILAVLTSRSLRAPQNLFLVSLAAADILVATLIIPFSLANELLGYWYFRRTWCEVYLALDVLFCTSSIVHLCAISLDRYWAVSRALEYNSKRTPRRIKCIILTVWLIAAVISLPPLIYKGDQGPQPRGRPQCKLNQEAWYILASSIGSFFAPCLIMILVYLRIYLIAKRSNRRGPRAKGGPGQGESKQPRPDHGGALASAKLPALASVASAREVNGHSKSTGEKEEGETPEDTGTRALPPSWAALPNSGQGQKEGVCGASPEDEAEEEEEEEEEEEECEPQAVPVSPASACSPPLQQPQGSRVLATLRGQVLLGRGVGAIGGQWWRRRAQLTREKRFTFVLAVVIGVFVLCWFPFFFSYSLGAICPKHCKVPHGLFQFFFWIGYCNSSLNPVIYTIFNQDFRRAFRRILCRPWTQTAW
Description: (§1) The imidazole-2-thione compounds of the invention are agonists of alpha2 adrenergic receptors, particularly they tend to be specific or selective agonists of alpha2B and/or to a lesser extent alpha2C adrenergic receptors, in preference over alpha2A adrenergic receptors. […] Al., 1995, Pharmacol. Toxicol. 76, pp. 308-311 (incorporated herein by reference) and is also described below. Another reference pertinent to this assay is Conklin et al. (1993) Nature 363:274-6, also incorporated herein by reference.
(§2) Receptor Selection and Amplification Technology (RSAT) Assay
(§3) The RSAT assay measures a receptor-mediated loss of contact inhibition that results in selective proliferation of receptor-containing cells in a mixed population of confluent cells. The increase in cell number is assessed with an appropriate transfected marker gene such as β-galactosidase, the activity of which can be easily measured in a 96-well format. Receptors that activate the G protein, Gq, elicit this response. Alpha2 receptors, which normally couple to Gi, activate the RSAT response when coexpressed with a hybrid Gq protein that has a Gi receptor recognition domain, called Gq/i5.
(§4) NIH-3T3 cells are plated at a density of 2×10^6 cells in 15 cm dishes and maintained in Dulbecco's modified Eagle's medium supplemented with 10% calf serum. One day later, cells are cotransfected by calcium phosphate precipitation with mammalian expression plasmids encoding p-SV-β-galactosidase (5-10 μg), receptor (1-2 μg) and G protein (1-2 μg). 40 μg salmon sperm DNA may also be included in the transfection mixture. Fresh media is added on the following day and 1-2 days later, cells are harvested and frozen in 50 assay aliquots. Cells are thawed and 100 μl added to 100 μl aliquots of various concentrations of drugs in triplicate in 96-well dishes. Incubations continue 72-96 hr at 37 EC. After washing with phosphate-buffered saline, β-galactosidase enzyme activity is determined by adding 200 μl of the chromogenic substrate (consisting of 3.5 mM o-nitrophenyl-β-D-galactopyranoside and 0.5% nonidet P-40 in phosphate buffered saline), incubating overnight at 30 EC and measuring optical density at 420 nm. The absorbance is a measure of enzyme activity, which depends on cell number and reflects a receptor-mediated cell proliferation. The EC50 and maximal effect of each drug at each alpha2 receptor is determined. The efficacy or intrinsic activity is calculated as a ratio of the maximal effect of the drug to the maximal effect of a standard full agonist for each receptor subtype. Brimonidine, also called UK14304, the chemical structure of which is shown below, is used as the standard agonist for the alpha2A, alpha2B and alpha2C receptors.
(§5) The results of the RSAT assay with several exemplary compounds of the invention are disclosed in Table 1 above together with the chemical formulas of these examplary compounds. […] NA stands for “not active” at concentrations less than 10 micromolar. As is known EC50 is the concentration at which half of a given compound's maximal activity is observed.

[2] = molecular target: T2, alpha2C adrenergic receptors (Homo sapiens, UniProt P18825); test: Receptor Selection and Amplification Technology (RSAT) assay, alpha2C; format: cell-based; conditions: for EC50: NA = not active at concentrations less than 10 micromolar, read-out: Alpha 2C EC50; for Alpha 2C intrinsic activity: fraction of maximal effect of standard full agonist brimonidine (UK14304)
T2 construct: expressed in transfected cells; host or cells: NIH-3T3
T2 sequence (P18825 1-462): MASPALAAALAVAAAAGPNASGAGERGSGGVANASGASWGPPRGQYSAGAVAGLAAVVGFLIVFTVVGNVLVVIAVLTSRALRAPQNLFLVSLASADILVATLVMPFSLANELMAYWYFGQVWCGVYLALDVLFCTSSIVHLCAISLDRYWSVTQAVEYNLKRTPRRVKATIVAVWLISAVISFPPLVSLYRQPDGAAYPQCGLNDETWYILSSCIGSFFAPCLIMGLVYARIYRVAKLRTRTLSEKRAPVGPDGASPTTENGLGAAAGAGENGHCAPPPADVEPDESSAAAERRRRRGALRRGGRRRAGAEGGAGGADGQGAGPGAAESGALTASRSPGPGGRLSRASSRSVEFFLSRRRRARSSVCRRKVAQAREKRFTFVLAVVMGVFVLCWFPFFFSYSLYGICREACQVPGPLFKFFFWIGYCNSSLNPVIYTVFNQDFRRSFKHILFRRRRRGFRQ
Description: as §1, §2, §3, §4, §5

Compound | EC50 [1] | Alpha 2B intrinsic activity [1] | EC50 [2] | Alpha 2C intrinsic activity [2]
S=c1[nH]cc(CC2CCC3=C2CCCC3)[nH]1 (stereo not drawn) | 30 nM | 1.06 | 602 nM | 0.55
CC1=CCCCC1Cc1c[nH]c(=S)[nH]1 (stereo not drawn) | 85 nM | 1.07 | 677 nM | 1.13
CCC1=CCCCC1Cc1c[nH]c(=S)[nH]1 (stereo not drawn) | 161 nM | 1.0 | 331 nM | 1.0
CC1Cc2ccccc2C1Cc1c[nH]c(=S)[nH]1 (stereo not drawn) | 578 nM | 1.1 | > 2000 nM | 0.57
CC1CC(Cc2c[nH]c(=S)[nH]2)c2ccccc21 (stereo not drawn) | 33 nM | 1.01 | 1020 nM | 1.39
S=c1[nH]cc(CC2C=CCCC2)[nH]1 (stereo not drawn) | 665 nM | 1.12 | > 2000 nM | 0.70
Cc1ccc(C)c2c1CC(c1c[nH]c(=S)[nH]1)C2 | 7 nM | 1.27 | 92 nM | 0.86
Cc1c(Cl)ccc2c1CC(c1c[nH]c(=S)[nH]1)C2 (stereo not drawn) | 14 nM | 0.91 | 561 nM | 0.45
S=c1[nH]cc(C2Cc3ccc(Cl)c(Cl)c3C2)[nH]1 (stereo not drawn) | 7 nM | 1 | 190 nM | 0.53
S=c1[nH]cc(C2Cc3cccc(I)c3C2)[nH]1 (stereo not drawn) | 7 nM | 0.96 | 101 nM | 0.49
S=c1[nH]cc(C2Cc3cccc(Cl)c3C2)[nH]1 (stereo not drawn) | < 2 nM | 1.15 | 45 nM | 0.74
Cc1ccc(C2=CCCC2Cc2c[nH]c(=S)[nH]2)cc1 (stereo not drawn) | 2180 nM | 0.47 | > 3000 nM | 0.46
COc1ccc(C2=CCCC2Cc2c[nH]c(=S)[nH]2)cc1 (stereo not drawn) | > 3000 nM | 0.56 | 568 nM | 0.47
N#Cc1ccc(C2=CCCC2Cc2c[nH]c(=S)[nH]2)cc1 (stereo not drawn) | 498 nM | 0.91 | 155 nM | 1.01
O=[N+]([O-])c1cccc(C2=CCCC2Cc2c[nH]c(=S)[nH]2)c1 (stereo not drawn) | > 10000 nM |  | 2510 nM | 
Fc1ccc(C2=CCC[C@@H]2Cc2c[nH]c(=S)[nH]2)cc1 | 269 nM | 0.97 | 131 nM | 0.72
Fc1ccc(C2=CCCC2Cc2c[nH]c(=S)[nH]2)cc1 (stereo not drawn) | 459 nM | 0.68 | 152 nM | 0.77
S=c1[nH]cc(CC2CCC=C2c2ccc(Cl)s2)[nH]1 (stereo not drawn) | 1100 nM | 0.69 | 2760 nM | 0.75
S=c1[nH]cc(CC2CCC=C2c2cccs2)[nH]1 (stereo not drawn) | 234 nM | 0.53 | 611 nM | 0.42
CC1=C(c2ccc(C#N)cc2)C(Cc2c[nH]c(=S)[nH]2)CC1 (stereo not drawn) | 22 nM | 0.93 | 41 nM | 0.85
CC1=C(c2ccc([N+](=O)[O-])cc2)C(Cc2c[nH]c(=S)[nH]2)CC1 (stereo not drawn) | 21 nM |  | 92 nM | 

More lines, now with the values ahead:

EC50 [1] | Alpha 2B intrinsic activity [1] | EC50 [2] | Alpha 2C intrinsic activity [2] | Compound
24 nM | 0.93 | 137 nM | 0.42 | S=c1[nH]cc(CC2CCCc3ccccc32)[nH]1 (stereo not drawn)
34 nM | 1.01 | 42 nM | 0.63 | Fc1ccc2c(c1)C(Cc1c[nH]c(=S)[nH]1)CC2 (stereo not drawn)
354 nM | 0.363 | 662 nM | 0.38 | Fc1cc2c(cc1F)C(Cc1c[nH]c(=S)[nH]1)CC2 (stereo not drawn)
87 nM | 0.73 | 168 nM | 0.59 | S=c1[nH]cc(CC2CCc3c(Br)cccc32)[nH]1 (stereo not drawn)
236 nM | 1.07 | 2820 nM | 0.46 | S=c1[nH]cc(CC2CCCc3cccnc32)[nH]1 (stereo not drawn)
191 nM | 0.53 | 916 nM | 0.37 | Fc1cccc(C2=CCC[C@H]2Cc2c[nH]c(=S)[nH]2)c1
472 nM | 0.83 | 790 nM | 0.58 | Fc1cc(F)cc(C2=CCC[C@H]2Cc2c[nH]c(=S)[nH]2)c1
1600 nM | 0.59 | 569 nM | 0.68 | Fc1cc(F)cc(C2=CCC[C@@H]2Cc2c[nH]c(=S)[nH]2)c1
225 nM | 0.44 | 205 nM | 0.68 | Fc1ccc(C2=CCCC2Cc2c[nH]c(=S)[nH]2)cc1F (stereo not drawn)
219 nM | 0.42 | 290 nM | 0.62 | Fc1ccc(C2=CCCC2Cc2c[nH]c(=S)[nH]2)c(F)c1 (stereo not drawn)
103 nM | 0.97 | 40 nM | 0.52 | CCC1=C(c2ccc(F)cc2)C(Cc2c[nH]c(=S)[nH]2)CC1 (stereo not drawn)
603 nM | 0.98 | 57 nM | 0.5 | CCCC1=C(c2ccc(F)cc2)C(Cc2c[nH]c(=S)[nH]2)CC1 (stereo not drawn)
32 nM | 0.9 | 9 nM | 0.45 | Fc1ccc(C2=C(C3CC3)CCC2Cc2c[nH]c(=S)[nH]2)cc1 (stereo not drawn)
22.5 nM | 0.97 | 34.5 nM | 0.82 | CC1=C(c2ccc(F)cc2)C(Cc2c[nH]c(=S)[nH]2)CCC1 (stereo not drawn)
115 nM | 0.89 | 47 nM | 1.11 | CC1=C(c2cc(F)cc(F)c2)C(Cc2c[nH]c(=S)[nH]2)CC1 (stereo not drawn)
51 nM | 0.78 | 22 nM | 0.95 | CC1=C(c2ccc(F)cc2)C(Cc2c[nH]c(=S)[nH]2)CC1 (stereo not drawn)
